Experimental data taken from patent publication US9493483B2, “Benzo [C] isoxazoloazepine bromodomain inhibitors and uses thereof” (Constellation Pharmaceuticals, Inc., priority 2012, dated 2016).
Where two headings read alike, the source gives them in different places.

Assays:
[1] = system: IL-6 secretion in LPS-stimulated THP-1 cells; assay: Cell-based IL-6 quantification assay (ELISA, Mesoscale); settings: LPS 4 μg/mL, 16 h, read-out: IL-6 Cellular EC50
Experimental: Cell-Based IL-6 Quantification Assay (ELISA, Mesoscale Assay):
100,000 THP-1 cells were seeded in RPMI1640-10% FBS in 96-well plates. LPS (E. Coli Invitrogen) in RPMI-10% FBS at a final concentration of 4 μg/mL was added to the wells and the cells are then incubated in the presence of various concentrations of compounds for 16 h. Plates are spun ([…], 5 min), an aliquot of 25 uL supernatant is transferred in to an ELISA plate (Mesoscale technology, MSD) and the detection of IL-6 is performed using manufacturer's instructions. The amount of cells in each well is assessed using CellTiter-Glo® (Promega). The ratio of ELISA value/CellTiter-Glo value is used to calculate the percent of inhibition of IL-6 secretion.

BRD4(BD1) = BRD4(BD1) (Homo sapiens (Human), UniProt O60885); assay: BRD4 AlphaLisa binding assay; settings: BRD4(BD1) 30 nM, H4-tetraacetyl peptide 200 nM; read-out: AlphaScreen IC50
Experimental: IC50 Measurements for Inhibitors Using BRD4 AlphaLisa Binding Assay
His/Flag epitope tagged BRD4 BD142-168 was cloned, expressed and purified to homogeneity. BRD4 binding and inhibition was assessed by monitoring the engagement of biotinylated H4-tetraacetyl peptide (Millipore #12-379) with the target using the AlphaLisa technology (Perkin-Elmer). Specifically, in a 384 well ProxiPlate BRD4(BD1) (30 nM final) was combined with peptide (200 nM final) in 40 mM HEPES (pH 7.0), 40 mM NaCl, 1 mM DTT, 0.01% (w/v) BSA, and 0.008% (w/v) Brij-35 either in the presence of DMSO (final 1.2% DMSO) or compound dilution series in DMSO. After 20 minute incubation at room temperature Alpha streptavidin donor beads and AlphaLisa anti-Flag acceptor beads were added to a final concentration of 10 ug/mL each. After three hours equilibration plates were read on an Envision instrument and IC50s calculated using a four parameter non-linear curve fit.

[2] = system: MYC mRNA in MV4:11 (AML) or Raji (Burkitt's lymphoma) cells; assay: cMyc RNA quantification assay (QuantiGene); assay type: cell-based; settings: MV4:11 or Raji cells, 4 h; read-out: MYC Cellular EC50
Experimental: cMyc RNA Quantification Assay (QuantiGene® Assay):
MV4:11 (AML) or Raji (Burkitt's lymphoma) cells were seeded in a 96-well plate and incubated in the presence of various concentrations of compounds for 4 h. Relative mRNA levels were quantitated by using QuantiGene 2.0 assay (Affymetrix) according to the manufacturer's recommendation. Signals were detected by using an Envision plate reader (Perkin-Elmer). Biological duplicates were averaged and normalized to vehicle (DMSO) control to calculate percent MYC mRNA levels.

[3] = system: MV4-11 lymphoblast cell subcutaneous xenograft; assay: Tumor growth inhibition in MV4-11 subcutaneous xenograft mouse model; assay type: in vivo; settings: female nude mice, all cohorts: 1.5-3 mg/kg SC BID/QD, 3-10 mg/kg PO QD (Table 3)
Experimental: This study investigated the effects of Compound 401 on tumor growth inhibition in an MV4-11 lymphoblast cell subcutaneous xenograft mouse model.
A total number of 120 female nude mice were purchased. These mice were allowed 3 days of acclimatization period before experiments started. The cell suspension was carried to the animal room in an ice box. Mice were implanted subcutaneously (s.c.) with 200 μL of 10×10^6 MV4-11 cells in 50% Matrigel in the right flank at the beginning of the study. All the mice were observed everyday to monitor the health and tumor size.
When tumors reached an average volume of 150-200 mm^3, 100 out of the 120 mice were selected based on their tumor volume and randomly assigned to 10 groups prior to dosing. Each group consisted of 10 tumor-bearing mice (n=10/group).
Tumor-bearing mice were treated with Compound 401 or vehicle, by subcutaneous injection (5 mL/kg) or oral dose (10 mL/kg) starting on the day after randomization for 29 days according to Table 3.
Mice were weighed at each dosing and recorded every day. Mice were observed closely for any overt signs of adverse, treatment-related side effects, which if any were recorded. […] Tumor size was measured three times a week in two dimensions using a caliper, and the tumor volume (V) was expressed in mm^3 using the formula: V=0.5 a×b^2 where a and b were the long and short diameters of the tumor, respectively. […]

HT29 = assay: In vitro cancer cell line growth inhibition (GI50); assay type: cell-based; settings: Homo sapiens, HT-29; HT29, Colorectal, 72 hours, resazurin
Experimental: (§1) Method for GI50 Determination
(§2) Adherent cells were plated in 96-well plates and the following day compound titrations were added to the cells. Suspensions cells were plated directly in 96-well plates containing compound titrations. Compound titrations were comprised of 9 two-fold dilutions. Cells were incubated for 72 hours before analysis of viability with resazurin. Viability relative to DMSO treated cells was plotted to determine the absolute GI50 values.

WSU-DLCL-2 = assay: In vitro cancer cell line growth inhibition (GI50); assay type: cell-based; settings: Homo sapiens, WSUDLCL2; WSU-DLCL-2, DLBCL, 72 hours, resazurin
Experimental: as §1, §2

SU-DHL-8 = assay: In vitro cancer cell line growth inhibition (GI50); assay type: cell-based; settings: Homo sapiens; SU-DHL-8, DLBCL, 72 hours, resazurin
Experimental: as §1, §2

LP1 = assay: In vitro cancer cell line growth inhibition (GI50); assay type: cell-based; settings: Homo sapiens, LP-1; LP1, Multiple myeloma, 72 hours, resazurin
Experimental: as §1, §2

H23 = assay: In vitro cancer cell line growth inhibition (GI50); assay type: cell-based; settings: Homo sapiens, NCI-H23; H23, Lung, 72 hours, resazurin
Experimental: as §1, §2

SU-DHL-4 = assay: In vitro cancer cell line growth inhibition (GI50); assay type: cell-based; settings: Homo sapiens; SU-DHL-4, DLBCL, 72 hours, resazurin
Experimental: as §1, §2

SU-DHL-6 = assay: In vitro cancer cell line growth inhibition (GI50); assay type: cell-based; settings: Homo sapiens; SU-DHL-6, DLBCL, 72 hours, resazurin
Experimental: as §1, §2

ZR-75-1 = assay: In vitro cancer cell line growth inhibition (GI50); assay type: cell-based; settings: Homo sapiens; ZR-75-1, Breast, 72 hours, resazurin
Experimental: as §1, §2

A2780 = assay: In vitro cancer cell line growth inhibition (GI50); assay type: cell-based; settings: Homo sapiens; A2780, Ovarian, 72 hours, resazurin
Experimental: as §1, §2

U2932 = assay: In vitro cancer cell line growth inhibition (GI50); assay type: cell-based; settings: Homo sapiens; U2932, DLBCL, 72 hours, resazurin
Experimental: as §1, §2

ML-2 = assay: In vitro cancer cell line growth inhibition (GI50); assay type: cell-based; settings: Homo sapiens; ML-2, AML, 72 hours, resazurin
Experimental: as §1, §2

SU-DHL-10 = assay: In vitro cancer cell line growth inhibition (GI50); assay type: cell-based; settings: Homo sapiens, SU-DHL10; SU-DHL-10, DLBCL, 72 hours, resazurin
Experimental: as §1, §2

KARPAS 422 = assay: In vitro cancer cell line growth inhibition (GI50); assay type: cell-based; settings: Homo sapiens; KARPAS 422, DLBCL, 72 hours, resazurin
Experimental: as §1, §2

DOHH2 = assay: In vitro cancer cell line growth inhibition (GI50); assay type: cell-based; settings: Homo sapiens, DOHH-2; DOHH2, DLBCL, 72 hours, resazurin
Experimental: as §1, §2

A549 = assay: In vitro cancer cell line growth inhibition (GI50); assay type: cell-based; settings: Homo sapiens; A549, Lung, 72 hours, resazurin
Experimental: as §1, §2

THP-1 = assay: In vitro cancer cell line growth inhibition (GI50); assay type: cell-based; settings: Homo sapiens; THP-1, AML, 72 hours, resazurin
Experimental: as §1, §2

MV4-11 = assay: In vitro cancer cell line growth inhibition (GI50); assay type: cell-based; settings: Homo sapiens; MV4-11, AML, 72 hours, resazurin
Experimental: as §1, §2

H526 = assay: In vitro cancer cell line growth inhibition (GI50); assay type: cell-based; settings: Homo sapiens, NCI-H526; H526, Lung, 72 hours, resazurin
Experimental: as §1, §2

HT = assay: In vitro cancer cell line growth inhibition (GI50); assay type: cell-based; settings: Homo sapiens, DLBCL, 72 hours, resazurin
Experimental: as §1, §2

KMS11 = assay: In vitro cancer cell line growth inhibition (GI50); assay type: cell-based; settings: Homo sapiens, KMS-11; KMS11, Multiple myeloma, 72 hours, resazurin
Experimental: as §1, §2

SU-DHL-5 = assay: In vitro cancer cell line growth inhibition (GI50); assay type: cell-based; settings: Homo sapiens; SU-DHL-5, DLBCL, 72 hours, resazurin
Experimental: as §1, §2

OPM2 = assay: In vitro cancer cell line growth inhibition (GI50); assay type: cell-based; settings: Homo sapiens, OPM-2; OPM2, Multiple myeloma, 72 hours, resazurin
Experimental: as §1, §2

DLD-1 = assay: In vitro cancer cell line growth inhibition (GI50); assay type: cell-based; settings: Homo sapiens; DLD-1, Colorectal, 72 hours, resazurin
Experimental: as §1, §2

143B = assay: In vitro cancer cell line growth inhibition (GI50); assay type: cell-based; settings: Homo sapiens, Osteosarcoma, 72 hours, resazurin
Experimental: as §1, §2

MOLM-13 = assay: In vitro cancer cell line growth inhibition (GI50); assay type: cell-based; settings: Homo sapiens; MOLM-13, AML, 72 hours, resazurin
Experimental: as §1, §2

DB = assay: In vitro cancer cell line growth inhibition (GI50); assay type: cell-based; settings: Homo sapiens, DLBCL, 72 hours, resazurin
Experimental: as §1, §2

OCI-LY-19 = assay: In vitro cancer cell line growth inhibition (GI50); assay type: cell-based; settings: Homo sapiens, OCI-LY19; OCI-LY-19, DLBCL, 72 hours, resazurin
Experimental: as §1, §2

`Cc1noc2c1-c1ccc(-c3cnn(C)c3)cc1C(c1ccc(Cl)cc1)=N[C@H]2CC(N)=O` [Compound 400, 2-((4S)-6-(4-chlorophenyl)-1-methyl-8-(1-trideuteromethyl-1H-pyrazol-4-yl)-4H-benzo[c]isoxazolo[4,5-e]azepin-4-yl)-^15N-acetamide] showed an EC50 [1] of 5 nM, an IC50 (BRD4(BD1)) of 18 nM and an EC50 [2] of 8 nM.
With `Cc1noc2c1-c1ccc(-c3cnn(C)c3)cc1C(c1ccc(Cl)cc1)=N[C@H]2CC(N)=O` [Compound 401, 2-((4S)-6-(4-Chlorophenyl)-1-methyl-8-(1-methyl-1H-pyrazol-4-yl)-4H-benzo[c]isoxazolo[4,5-e]azepin-4-yl)acetamide] the EC50 ([1]; Homo sapiens) was 15 nM, the tumor volume reduction [3] was “Statistically significant reductions in tumor volumes” and the IC50 (BRD4(BD1)) was 14 nM. The EC50 [2] was 13 nM, the GI50 (HT29) was 200 nM and the GI50 (WSU-DLCL-2) was 45 nM. The GI50 (SU-DHL-8) was 100 nM, the GI50 (LP1) was 5 nM and the GI50 (H23) was 210 nM. The GI50 (SU-DHL-4) was 150 nM, the GI50 (SU-DHL-6) was 60 nM and the GI50 (ZR-75-1) was 300 nM. It also gave a GI50 (A2780) of 90 nM, a GI50 (U2932) of 625 nM and a GI50 (ML-2) of 60 nM. The GI50 (SU-DHL-10) was 100 nM, the GI50 (KARPAS 422) was 20 nM and the GI50 (DOHH2) was 60 nM. The GI50 (A549) was 460 nM, the GI50 (THP-1) was 65 nM and the GI50 (MV4-11) was 15 nM. For the same compound, the GI50 (H526) was 10 nM, the GI50 (HT) was 100 nM and the GI50 (KMS11) was 100 nM. For the same compound, the GI50 (SU-DHL-5) was 325 nM, the GI50 (OPM2) was 10 nM and the GI50 (DLD-1) was 480 nM. It also gave a GI50 (143B) of 230 nM, a GI50 (MOLM-13) of 90 nM and a GI50 (DB) of 150 nM. The GI50 (OCI-LY-19) was 60 nM.
With `Cc1noc2c1-c1ccc(-c3cnn(C)c3)cc1C(c1ccc(Cl)cc1)=N[C@H]2CC(=O)N(C)C` [Compound 402] the EC50 ([1]; Homo sapiens) was 7 nM, the IC50 (BRD4(BD1)) was 13 nM and the EC50 [2] was 23 nM.
With `Cc1ccc(-c2ccc3c(c2)C(c2ccc(Cl)cc2)=N[C@@H](CC(N)=O)c2onc(C)c2-3)cn1` [Compound 403] the EC50 ([1]; Homo sapiens) was 29 nM, the IC50 (BRD4(BD1)) was 28 nM and the EC50 [2] was 36 nM.
With `Cc1noc(-c2ccc3c(c2)C(c2ccc(Cl)cc2)=N[C@@H](CC(N)=O)c2onc(C)c2-3)n1` [Compound 404, 2-((4S)-6-(4-chlorophenyl)-1-methyl-8-(3-methyl-1,2,4-oxadiazol-5-yl)-4H-benzo[c]isoxazolo[4,5-e]azepin-4-yl)acetamide] the EC50 ([1]; Homo sapiens) was 36 nM, the IC50 (BRD4(BD1)) was 270 nM and the EC50 [2] was 206 nM.
In the case of `Cc1noc2c1-c1ccc(-c3cnn(C)c3)cc1C(c1ccc(Cl)cc1)=N[C@H]2CC(=O)O` [Compound 405], the EC50 ([1]; Homo sapiens) is reported as 420 nM, the IC50 (BRD4(BD1)) is reported as 175 nM and the EC50 [2] is reported as 833 nM.
